Laboratory results taken from patent US20110105393A1, “METHODS FOR PROMOTING STEM CELL PROLIFERATION AND SURVIVAL” (priority 2007, published 2011).

Assays:
mTOR = mTOR phosphorylation in NSC cultures (Western blot); format: cell-based, mouse
Experimental: (§1) Cell culture: E13.5 cortical embryonic mouse CNS stem cells were grown as previously described (Johe, et al., Genes Dev 10, 3129-40, 1996). Cells were expanded in serum-free DMEM/F12 medium with N2 supplement and FGF2 (20 ng/ml) for 5 days under 5% oxygen conditions and were re-plated fresh or from frozen stocks at 1,000-10,000 cells per cm^2. FGF2 was included throughout the studies, unless otherwise stated. Adult rat (3-6 months old) or adult mouse (2-4 months old) SVZ NSC cultures were grown in the same medium as the fetal cultures.
(§2) Fetal NSCs in culture express Ang-1, and treatment (2 days) with Dll4 maintained it whereas CNTF reduced it. Ang-2 expression was maintained under these conditions. […] Ang-2 induced mTOR and STAT3-S727 phosphorylation, unlike Ang-1 (FIG. 2a). Ang-1, however, induced Akt phosphorylation.
Three characterized Tie-2 receptor antibodies were used to determine if the Tie-2 receptor was expressed in the immature neural precursor cells found in the SVZ of the adult brain. When ligand is bound, the Tie-2 receptor becomes phosphorylated. An antibody that recognizes the activated receptor (RnD Systems, AF2720) and another antibody that binds to a distinct site (Santa Cruz, sc-324) identified many positive cells in the subventricular zone of the adult rat brain. In regions that were more distant from the ventricle, Tie-2 was expressed predominantly on blood vessels and endothelial cells reacted with antibodies against the activated receptor. Precursor cells that proliferate in vitro can be readily derived from the fetal and adult brain. The homogeneity of these cell populations in attached culture and their potential to generate neurons and glia is supported by clonal analysis. […] This colony number assay measured the survival of precursor cells that could differentiate into neurons and glia (See, Table 1).

Tie-2 receptor = test: Tie-2 phosphorylation in fetal neural cells (Western blot); format: cell-based, mouse; details: exogenous addition, Western blot (FIG. 10a)
Experimental: (§3) Cell Culture: E13.5 cortical embryonic mouse CNS stem cells were grown as previously described (Johe et al., Genes Dev 10, 3129, 1996). Cells were expanded in serum-free DMEM/F12 medium with N2 supplement and FGF2 (20 ng/ml) for 5 days under 5% oxygen conditions and were re-plated fresh or from frozen stocks at 1,000-10,000 cells per cm^2. FGF2 was included throughout our experiments, unless otherwise stated. Adult rat (3-6 months old) or adult mouse (2-4 months old) SVZ Neural Stem Cell (NSC) cultures were grown in the same medium as the fetal cultures.
(§4) Pharmacological treatments: Unless otherwise stated, we used the following concentrations: Dll4 and Ang2 (in vitro, 500 ng/ml; in vivo 12.5 μg as a single injection), FGF2 (in vitro, 20 ng/ml), JAK inhibitor (in vitro, 200 nM; in vivo, 250 ng as a single injection), insulin (in vitro, 25 μg/ml; in vivo, 40 μg as a single injection), DAPT (1 μM), Fluorogold (0.5 μg). […]
Three characterized Tie-2 receptor antibodies were used to determine if the Tie-2 receptor was expressed in the immature neural precursor cells found in the SVZ of the adult brain. […] Precursor cells that proliferate in vitro can be readily derived from the fetal and adult brain. […] This colony number assay measured the survival of precursor cells that could differentiate into neurons and glia (See, Table 1).

adult rat SVZ NSCs = test: Expansion of adult rat SVZ NSC / neural precursor cultures; format: cell-based
Experimental: as §1
Pharmacological treatments: Unless otherwise stated, the following concentrations were used: Dll4 and Ang-2 (in vitro, 500 ng/ml; in vivo 12.5 μg as a single injection), FGF2 (in vitro, 20 ng/ml), JAK inhibitor (in vitro, 200 nM; in vivo, 250 ng as a single injection), insulin (in vitro, 25 μg/ml; in vivo, 40 μg as a single injection), DAPT (1 μM), Fluorogold (0.5 μg). For the survival assays, compounds were added daily and Notch ligands every 2 days for the duration of the experiment. For the effects of kinase inhibitors on Notch activation, cells were pre-incubated for 1 h prior to Notch activation.
as §3, §4

Hes3 = Hes3 protein immuno-staining in fetal NSC cultures; format: cell-based, mouse; details: 2 day treatment
Experimental: as §1
Hes3 mRNA is present in fetal NSC cultures under conditions that support their self-renewal but CNTF-induced differentiation (Bonni, A. et al., Science 278, 477-83, 1997; Rajan & McKay, J Neurosci 18, 3620-9, 1998): downregulates Hes3 message (Androutsellis-Theotokis, A. et al., Nature 442, 823-6, 2006). Knockout studies have shown a role of Hes3 in self-renewal (Hatakeyama, J. et al., Development 131, 5539-50, 2004). It was investigated if Hes3 mediates stem cell functions in vitro to assess its use as a functional NSC marker. Fetal (E13.5) cortical tissue was dissociated and magnetic sorting was used to isolate a cell population that expressed AC133, an established marker of NSCs (Uchida, N. et al., Proc Natl Acad Sci USA 97, 14720-5, 2000). […]

Ang-1 = Ang-1 expression in fetal NSC cultures; format: cell-based, mouse; details: fetal NSCs in culture, treatment 2 days
Experimental: as §1, §2

Substance	mTOR phosphorylation (mTOR; NSC cultures, 0.5 μg/ml (FIG. 2a, Example 3))	effect on mTOR (mTOR; Western blots, fetal neural cells (FIG. 10a, Example 9))	phosphorylation of Tie-2 (Tie-2 receptor)	generation of adult rat SVZ NSCs in vitro (adult rat SVZ NSCs; 0.5 μg/ml, 5-d (FIG. 2b))	colony formation and overall cell numbers (adult rat SVZ NSCs; adult rat SVZ NSC cultures treated with Dll4)	increase in the numbers of proliferating cells (adult rat SVZ NSCs; cells from adult SVZ in culture, added to Dll4, insulin and FGF2, p=2.15×10^−5 (FIG. 10b)) [fold]	Hes3 protein expression (Hes3)	Ang-1 expression (Ang-1)
Ang-2: human angiopoietin-2 (623-AN) from R&D; antagonist for angiopoietin-1 at Tie2	induced	no effect	promoted phosphorylation	profoundly increased	significantly increased	7	–	–
Dll4: Notch ligand Delta-like 4; mouse Dll4 (1389-D4) from R&D	–	–	–	–	–	–	maintained	maintained
